Test results as given in BigSolDB 2.1.

C[C@@H]1CC[C@@]2(OC1)O[C@H]1C[C@H]3[C@@H]4CC=C5C[C@@H](O)CC[C@]5(C)[C@H]4CC[C@]3(C)[C@H]1[C@@H]2C
Conditions | solubility (mole fraction)
in ethanol, 289.15 K | 0.00106
in ethanol, 301.05 K | 0.00147
in ethanol, 305.75 K | 0.0017
in ethanol, 312.35 K | 0.00188
in ethanol, 312.65 K | 0.00196
in ethanol, 316.65 K | 0.00227
in ethanol, 320.25 K | 0.00253
in ethanol, 322.35 K | 0.00269
in ethanol, 324.05 K | 0.0029
in ethanol, 325.65 K | 0.00306
in ethanol, 327.65 K | 0.00324
in ethanol, 329.05 K | 0.00338
in ethanol, 331.25 K | 0.00353
in ethanol, 332.35 K | 0.00372
in ethanol, 334.15 K | 0.00388
in isobutanol, 305.15 K | 0.00236
in isobutanol, 306.95 K | 0.00266
in isobutanol, 307.65 K | 0.00296
in isobutanol, 308.65 K | 0.00332
in isobutanol, 310.15 K | 0.00364
in isobutanol, 311.65 K | 0.00416
in isobutanol, 312.95 K | 0.00456
in isobutanol, 313.85 K | 0.00499
in isobutanol, 314.85 K | 0.0054
in isobutanol, 316.15 K | 0.00582
in isobutanol, 317.65 K | 0.00625
in isobutanol, 319.65 K | 0.00672
in isobutanol, 320.65 K | 0.0071
in isobutanol, 322.15 K | 0.00754
in isobutanol, 323.85 K | 0.00797
in isobutanol, 325.15 K | 0.00836
in isobutanol, 326.95 K | 0.00884
in isobutanol, 328.65 K | 0.00931
in isobutanol, 330.65 K | 0.00979
in isooctanol, 296.55 K | 0.0073
in isooctanol, 298.55 K | 0.00809
in isooctanol, 299.75 K | 0.0091
in isooctanol, 303.15 K | 0.00992
in isooctanol, 305.65 K | 0.0106
in isooctanol, 307.15 K | 0.0114
in isooctanol, 309.25 K | 0.012
in isooctanol, 311.85 K | 0.0129
in isooctanol, 314.65 K | 0.0139
in isooctanol, 315.95 K | 0.0146
in isooctanol, 318.25 K | 0.0154
in isooctanol, 321.05 K | 0.0163
in isooctanol, 323.25 K | 0.017
in isooctanol, 324.95 K | 0.0177
in isooctanol, 326.55 K | 0.0185
in isooctanol, 327.45 K | 0.0192
in isooctanol, 329.75 K | 0.0199
in n-butanol, 295.75 K | 0.00469
in n-butanol, 298.15 K | 0.0052
in n-butanol, 300.15 K | 0.00572
in n-butanol, 304.65 K | 0.00624
in n-butanol, 307.65 K | 0.00659
in n-butanol, 309.65 K | 0.00694
in n-butanol, 311.55 K | 0.00731
in n-butanol, 312.65 K | 0.00767
in n-butanol, 314.25 K | 0.00805
in n-butanol, 315.85 K | 0.0084
in n-butanol, 317.35 K | 0.00914
in n-butanol, 319.15 K | 0.00956
in n-butanol, 320.65 K | 0.00996
in n-butanol, 323.45 K | 0.0105
in n-butanol, 325.45 K | 0.011
in n-butanol, 326.45 K | 0.0114
in n-butanol, 328.45 K | 0.012
in n-pentanol, 290.75 K | 0.00406
in n-pentanol, 292.75 K | 0.00455
in n-pentanol, 296.15 K | 0.00507
in n-pentanol, 299.65 K | 0.00566
in n-pentanol, 301.55 K | 0.00615
in n-pentanol, 304.15 K | 0.00663
in n-pentanol, 307.65 K | 0.00722
in n-pentanol, 309.85 K | 0.00775
in n-pentanol, 312.45 K | 0.00838
in n-pentanol, 314.45 K | 0.00888
in n-pentanol, 316.75 K | 0.00933
in n-pentanol, 317.35 K | 0.00978
in n-pentanol, 318.75 K | 0.0105
in n-pentanol, 320.65 K | 0.0111
in n-pentanol, 322.65 K | 0.0116
in n-pentanol, 324.15 K | 0.0123
in n-pentanol, 325.75 K | 0.0128
in n-pentanol, 327.15 K | 0.0134
in n-pentanol, 329.15 K | 0.0139
in n-propanol, 290.15 K | 0.00163
in n-propanol, 292.95 K | 0.00205
in n-propanol, 295.55 K | 0.00243
in n-propanol, 301.75 K | 0.00278
in n-propanol, 305.25 K | 0.00307
in n-propanol, 307.95 K | 0.0034
in n-propanol, 310.95 K | 0.0039
in n-propanol, 314.75 K | 0.00424
in n-propanol, 318.15 K | 0.00473
in n-propanol, 320.05 K | 0.00506
in n-propanol, 322.75 K | 0.00542
in n-propanol, 326.35 K | 0.0059
in n-propanol, 327.85 K | 0.00622
in n-propanol, 329.25 K | 0.00663
in n-propanol, 330.65 K | 0.00696
in n-propanol, 332.65 K | 0.0073
in tert-butanol, 302.15 K | 0.000811
in tert-butanol, 304.65 K | 0.00108
in tert-butanol, 306.65 K | 0.00134
in tert-butanol, 308.15 K | 0.00151
in tert-butanol, 310.65 K | 0.00175
in tert-butanol, 312.15 K | 0.00198
in tert-butanol, 313.65 K | 0.00223
in tert-butanol, 314.15 K | 0.00244
in tert-butanol, 315.95 K | 0.00274
in tert-butanol, 317.75 K | 0.00307
in tert-butanol, 321.15 K | 0.00343
in tert-butanol, 323.15 K | 0.00368
in tert-butanol, 325.15 K | 0.00392
in tert-butanol, 326.65 K | 0.00427
in tert-butanol, 328.65 K | 0.00467
in tert-butanol, 330.75 K | 0.00497
in tert-butanol, 332.45 K | 0.00529
